Measured values from US20260048151A1, “HEMICYANINE PUSH-PULL DYES BASED ON CHROMENE ELECTRON DONORS” (UNIVERSITY OF CONNECTICUT, priority 2022, published 2026).
Several values for one entry are separate records, joined by “and”; a condition that tells them apart may be missing. Equal entries are not always repeated.

How the values were obtained:
[1] = Voltage sensitivity on voltage-clamped hemispherical lipid bilayer; conditions: long pass emission filter
From the text: It is known that optimal voltage sensitivity can be obtained by measuring the compounds on a voltage-clamped hemispherical bilayer apparatus. The apparatus can include a patch-clamp amplifier, such as a HEKA EPC-8 patch-clamp amplifier. Measurements can be obtained by stepping the membrane potential between two different potentials for a set time lapse. such as, for example, −110 and −60 mV every 10 ms.
Testing VSDs in a voltage-clamped hemispherical lipid bilayer allows one to determine the sensitivity of the VSDs as a function of excitation wavelength. This system has a Teflon tube filled with KCl and is immersed in a KCl solution in a cuvette. A lipid bubble is blown at the tip of the tube and spontaneously forms a bilayer membrane. The VSD to be tested is introduced on one side of the bilayer, usually in the cuvette. Electrodes in the tube and in the cuvette allow the imposition of a voltage across the membrane and a tungsten lamp coupled to a monochromator allows excitation wavelength dependence of the fluorescence response to voltage steps to be determined. This screening approach has allows for the comparison of the efficacy of newly developed VSDs in a well-controlled, consistent manner and to also determine excitation and emission wavelengths with optimal.
Voltage sensitivities of 2a as a function of voltage is shown in FIG. 3A for excitation at 730 nm and 570 nm. The voltage response is linear over the range of −100 mV to +100 mV; 570 nm is slightly to the blue of the isosbestic point, accounting for the weak but inverted sensitivity at this wavelength. […] This opposite polarity at the blue and red edges underlies the ability to use electrochromic hemicyanine dyes for dual-wavelength ratio imaging. The precise location of the isosbestic point in the excitation wavelength depends on the emission filter used because the emission spectrum is also voltage dependent for hemicyanine dyes.
The magnitude and wavelengths of the optimal voltage sensitivities of all the VSDs on the voltage-clamped hemispherical bilayer are included in the third column of Table 1.

[2] = system: intact mouse hearts; test: Optical mapping of cardiac electrical activity in isolated mouse hearts
Protocol: All animal handling and procedures were performed in accordance with the guidelines from Directive 2010/63/EU of the European Parliament on the protection of animals used for scientific purposes. The experimental protocol was approved by the Italian Ministry of Health (protocol number 944/2018-PR). Transgenic mice (ChR2-mhc6-cre+) with cardiomyocyte-specific expression of Channelrhodopsin-2 (ChR2, H134R variant) were generated and employed in this study. Wild-type mice (C57BL/6J) and ChR2-mhc6-cre+ mice (6 months old) were heparinized (0.1 mL at 5000 units/mL) and anesthetized by inhaled isoflurane (5%). The excised heart was immediately bathed in Krebs-Henseleit (KH) solution and cannulated through the aorta. The KH buffer contained (in mM): 120 NaCl, 5 KCl, 2 MgS2 O4-7H2O, 20 NaHCO3, 1.2 NaH2PO4—H2O, 1.8 CaCl2 and 10 glucose, pH 7.4 when equilibrated with carbogen. Cardiac contraction was inhibited during the entire experiment with 1 μM blebbistatin (Enzo Life Sciences, Farmingdale, NY, USA) in the solution. The cannulated heart was perfused through the aorta (using a horizontal-Langendorff perfusion system) with the KH solution and then transferred to a custom-built optical mapping chamber at a constant flow of 2.5 mL/min at (36±0.5)° C. Two platinum electrodes were placed below the heart for monitoring cardiac electrical activity via electrocardiogram (ECG). 1 mL of perfusion solution containing the voltage sensitive dye (VSD; ElectroFluor730p: 10 μM; di-4-ANBDQPQ: 6 μg/mL) was bolus injected into the aorta. All the experiments were performed at (36±0.5° C.) within 1 hour after dye loading to avoid potential re-distribution of the dye and accumulation of phototoxic by-products.
Optical mapping was performed using a custom-made mesoscope. Stained mouse hearts were illuminated in a wide-field configuration using a 2× objective (TL2x-SAP, Thorlabs, Newton, NJ, USA) and employing four different LED operating at a wavelength centred at 730 nm, 625 nm, 590 nm and 530 nm (M730L5, M625L3, M590L4 and M530L4 Thorlabs, Newton, NJ, USA) followed by excitation band-pass filters at 730/39 nm, 640/40 nm, 589/15 nm (FF01-730/39-25, FF01-640/40-25, FF01-589/15-25, Semrock) and 530/43 nm (MF530-43, Thorlabs) respectively. di-4-ANBDQPQ stained hearts were excited at 625 nm (0.875 mW/mm^2) and a dichroic beam splitter (FF685-Di02-25×36, Semrock) followed by a band-pass filter at 775/140 nm (FF01-775/140-25, Semrock) was used for collecting the emitted fluorescent signal. […] Light intensities were measured at sample site using a photodiode sensor (PD300-3W, Ophir Optronics, Jerusalem, Israel). […]

## CCCCCCN(CCCCCC)c1ccc2c(c1)OCC(/C=C/c1c(F)c[n+](CCC[N+](CC)(CC)CC)c3ccccc13)=C2.[Br-].[Br-] [2c]
[1]
  Ex (excitation wavelength of optimal voltage sensitivity): 730 nm
[1]; magnitude at optimal Ex/Em
  Voltage Sensitivity ΔF/F per 100 mV: 12%
[2]; 730 nm excitation, compared with di-4-ANBDQPQ
  sensitivity to an AP (APA), % decrease in fluorescence at the peak of an AP: higher than that of di-4-ANBDQPQ
[2]; compared with di-4-ANBDQPQ, student's t-test, listed as ElectroFluor730p
  differences in AP kinetics (APRS, APD50, APD70, APD90): no statistically significant differences in AP parameters excepting AP Amplitude
[2]; excitation 730, 590, 530 nm, exponential fit, listed as ElectroFluor730p
  inversion point (isosbestic point) of sensitivity: ≈ 571 nm and ~571 nm
[2]; isolated mouse hearts
  pharmacological effects of the VSD: no measurable pharmacological effects
